# Data from the supplement of paper PMC10307832.
# Key:
# Experiment in all cases: relative viability (nuclei count vs DMSO), 5 days (fraction); higher = more cells survive
# Linsitinib + Pictilisib = compound: C[C@]1(O)C[C@@H](c2nc(-c3ccc4ccc(-c5ccccc5)nc4c3)c3c(N)nccn32)C1 [Linsitinib] + CS(=O)(=O)N1CCN(Cc2cc3nc(-c4cccc5[nH]ncc45)nc(N4CCOCC4)c3s2)CC1 [Pictilisib] (partner 1 µM)
# Outline: (§1)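 Lung cancer cell lines, seeded in 1536-well plates, were treated the following day by pin tool with a single drug or with five library-drug doses (not always all listed) in √10 steps on top of a fixed anchor-drug dose. Cells were fixed and nuclei stained in one step after 5 days, and nuclei were counted. Relative viability is the nuclei count for treated wells divided by that for vehicle wells, reported as medians of duplicate plates.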
# Ispinesib + Palbociclib = compound: Cc1ccc(C(=O)N(CCCN)[C@@H](c2nc3cc(Cl)ccc3c(=O)n2Cc2ccccc2)C(C)C)cc1 [Ispinesib] + CC(=O)c1c(C)c2cnc(Nc3ccc(N4CCNCC4)cn3)nc2n(C2CCCC2)c1=O [Palbociclib] (partner 0.5 µM)
# Outline: as §1
# Ispinesib + Dasatinib = compound: Cc1ccc(C(=O)N(CCCN)[C@@H](c2nc3cc(Cl)ccc3c(=O)n2Cc2ccccc2)C(C)C)cc1 [Ispinesib] + Cc1nc(Nc2ncc(C(=O)Nc3c(C)cccc3Cl)s2)cc(N2CCN(CCO)CC2)n1 [Dasatinib] (partner 0.075 µM)
# Outline: as §1
# Ispinesib + Olaparib = compound: Cc1ccc(C(=O)N(CCCN)[C@@H](c2nc3cc(Cl)ccc3c(=O)n2Cc2ccccc2)C(C)C)cc1 [Ispinesib] + O=C(c1cc(Cc2n[nH]c(=O)c3ccccc23)ccc1F)N1CCN(C(=O)C2CC2)CC1 [Olaparib] (partner 8 µM)
# Outline: as §1
Cell Line,relative viability (Linsitinib + Pictilisib; first compound 0.01 µM),relative viability (Linsitinib + Pictilisib; first compound 0.03162 µM),relative viability (Linsitinib + Pictilisib; first compound 0.1 µM),relative viability (Linsitinib + Pictilisib; first compound 0.3162 µM),relative viability (Linsitinib + Pictilisib; first compound 1 µM),relative viability (Ispinesib + Palbociclib; first compound 0.001 µM),relative viability (Ispinesib + Palbociclib; first compound 0.003162 µM),relative viability (Ispinesib + Palbociclib; first compound 0.01 µM),relative viability (Ispinesib + Palbociclib; first compound 0.03162 µM),relative viability (Ispinesib + Palbociclib; first compound 0.1 µM),relative viability (Ispinesib + Dasatinib; first compound 0.001 µM),relative viability (Ispinesib + Dasatinib; first compound 0.003162 µM),relative viability (Ispinesib + Dasatinib; first compound 0.01 µM),relative viability (Ispinesib + Dasatinib; first compound 0.03162 µM),relative viability (Ispinesib + Dasatinib; first compound 0.1 µM),relative viability (Ispinesib + Olaparib; first compound 0.001 µM),relative viability (Ispinesib + Olaparib; first compound 0.003162 µM),relative viability (Ispinesib + Olaparib; first compound 0.01 µM),relative viability (Ispinesib + Olaparib; first compound 0.03162 µM),relative viability (Ispinesib + Olaparib; first compound 0.1 µM)
LXF-289,0.76,0.875,0.738,0.539,0.592,0.629,0.666,0.674,0.619,0.589,0.308,0.215,0.197,0.209,0.0629,1.07,1.21,1.44,1.05,0.95
NCI-H23,0.445,0.412,0.521,0.184,0.395,0.457,0.529,0.629,0.372,0.187,0.857,1.02,0.885,0.653,0.188,0.306,0.379,0.336,0.384,0.175
NCI-H322M,0.496,0.502,0.506,0.503,0.433,0.5,0.505,0.494,0.463,0.426,0.271,0.244,0.233,0.252,0.288,0.804,0.81,0.855,0.786,0.549
NCI-H358,0.317,0.232,0.333,0.261,0.281,0.125,0.13,0.143,0.106,0.0965,0.162,0.144,0.163,0.131,0.0677,0.624,0.671,0.761,0.569,0.214
NCI-H441,0.51,0.683,0.498,0.413,0.412,0.237,0.25,0.208,0.174,0.136,0.713,0.634,0.453,0.293,0.266,0.529,0.516,0.631,0.237,0.247
NCI-H460,0.308,0.36,0.278,0.494,0.225,0.288,0.181,0.184,0.0542,0.0736,0.557,0.619,0.573,0.323,0.0386,0.538,0.504,0.436,0.597,0.195
NCI-H520,0.324,0.306,0.285,–,0.284,0.186,0.223,0.221,0.21,0.167,0.164,0.229,0.178,0.152,0.198,0.364,0.328,0.388,0.188,0.278
NCI-H647,0.415,0.42,0.452,–,0.347,0.393,0.327,0.518,0.208,0.0953,0.176,0.173,0.122,0.0516,0.0877,0.749,0.545,0.681,0.172,0.143
NCI-H650,0.875,0.876,0.953,–,0.814,0.301,0.309,0.361,0.324,0.335,0.491,0.473,0.448,0.349,0.172,0.361,0.384,0.409,0.427,0.278
NCI-H661,–,0.375,0.329,0.464,0.332,0.398,0.4,0.406,0.282,0.248,0.999,0.982,0.921,0.353,0.251,0.737,0.848,0.805,0.505,0.255
NCI-H727,0.414,0.353,0.342,0.281,0.17,0.565,0.66,–,0.678,0.617,0.536,0.221,0.434,0.472,0.388,0.642,0.771,–,0.659,0.633
NCI-H838,0.42,0.446,0.374,0.217,0.306,0.23,0.23,0.262,0.212,0.137,0.325,0.335,0.29,0.242,0.182,0.914,0.875,1.11,0.668,0.203
NCI-H1355,0.433,0.437,0.343,0.228,0.359,0.397,0.425,0.436,0.373,0.331,0.82,0.836,0.625,0.379,0.423,0.736,0.806,0.889,0.736,0.328
NCI-H1395,0.568,0.603,0.618,0.573,0.556,0.721,0.642,0.412,0.444,0.463,0.432,0.419,0.713,0.354,0.333,0.436,0.446,0.439,0.369,0.356
NCI-H1437,0.449,0.53,0.455,0.467,0.57,0.329,0.319,0.325,0.332,0.13,0.45,0.512,0.395,0.35,0.166,0.685,0.653,0.763,0.7,0.256
NCI-H1650,0.529,0.485,0.556,0.138,0.356,0.368,0.346,0.3,0.172,0.254,0.35,0.353,0.349,0.186,0.151,0.953,0.743,0.82,0.701,0.195
